The source made the active and inactive calls. No cut-off for these calls is given here.
Tested on: Rattus norvegicus
Experiment: Hypoglycemic activity in 48 hrs fasted rat assessed as reduction in blood glucose at 150 mg/kg, po measured 1 to 4 hrs post challenge
Assay type: functional, organism-based
Set-up: dose 150 mg/kg

Compound | Activity
O=C(O)c1nccc(Cl)c1S | inactive
O=C(O)c1nccc(S)c1S | inactive
CSc1ccnc(C(=O)O)c1S | inactive
CCc1ccnc(C(=O)O)c1S | inactive
O=C(O)c1nccc(Oc2ccccc2)c1S | inactive
Nc1ccnc(C(=O)O)c1S | inactive
COc1ccnc(C(=O)O)c1S | inactive
